Like-named read-outs stand apart in the source and are kept apart here.
How the values were obtained:
[1] = format: physicochemical; settings: for DTA Transformation temperature (exothermic peak, reaction and/or decomposition) / DTA Vaporization temperature (endothermic peak): 25 to 350° C.
Protocol: Thermogravimetric analysis is a thermal analysis method in which the changes of the physical and chemical properties of the materials are measured as a function of the temperature. TGA can yield information on the physical phenomena, such as vaporization or combustion.
Similarly, one can obtain information on chemical phenomena such as dehydration or decomposition. In differential thermal analysis (DTA), the material under study and an inert reference material are exposed to identical thermal cycles. During the analysis, the difference in temperature between the sample and the reference material is recorded. These differences in temperatures monitored versus time relative to the inert reference material provide information on the exothermic or endothermic thermal phenomena undergone by the sample. By integration of the heat flow curve, DTA analysis yields the so-called endothermic enthalpy values when there is energy absorption, or so-called exothermic enthalpy values when energy is released in the form of heat. The endothermic character is connected with a change in the state of the compound (for example, vaporization), while the exothermic character is induced by decomposition reactions or intra- and intermolecular chemical reactions.
The analysis conditions are the following: • test specimen: 50 mg • open crucible under air flow: 100 mL/min • heating ramp: 10° C./min • temperature range: 25 at 350° C. (temperature conditions representative of normal use and of misuse of an electronic cigarette). Between analyses, the apparatus is cleaned by heating at 600° C. under air flow, in order to eliminate any trace of unvaporized residue deposited on the crucible, the arms of the scale, or the walls of the furnace.

[2] = Kinematic viscosity measurement of e-liquid products (Example 6); format: physicochemical
Protocol: Then, the kinematic viscosity of products A, B, C and D is measured.

SMILES	DTA Transformation temperature (exothermic peak, reaction and/or decomposition) ([1]; air flow, 10° C./min)	DTA Vaporization temperature (endothermic peak) ([1]; air flow, 10° C./min) [°C]	DTA Vaporization temperature (endothermic peak) ([1]; air flow, 10° C./min, listed as propylene glycol) [°C]	evaporation temperature lower than that of nicotine ([1]; difference to nicotine) [°C]	Kinematic viscosity at 20° C. [2] [mPa · s]	DTA residue unvaporized at 250° C. ([1]; air flow, 10° C./min) [%]
CC(O)CO (stereo not drawn) [Propylene glycol, propylene glycol]	without any thermal decomposition	174	170	16	–	–
OCCCO [1,3-propanediol]	without any thermal decomposition	189	–	–	52.6	–
OCC(O)CO [Glycerol, glycerol]	–	260	–	–	–	27.3

Source: US20160262443A1, “USE OF A COMPOSITION CONTAINING 1,3-PROPANEDIOL AS E-LIQUID” (priority 2014, published 2016)
